Data taken from PubChem BioAssay (NCI).
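Step 1: Grow cells in 96-well plates. Step 2: Expose to compound for 48 hours at 5 concentrations. Step 3: Interpolate endpoints linearly; if unreached, use highest concentration. TGI denotes the concentration required for complete inhibition of growth.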

What was measured:
Assay in all cases: inhibition of tumour cell growth, NCI panel, 48 h
[1] = system: NCI-H23 lung
[2] = system: MDA-MB-435
[3] = system: EKVX NSCLC
[4] = system: SK-OV-3 ovarian
[5] = system: UACC-257 melanoma
[6] = system: 786-0 renal
[7] = system: IGROV1 ovarian
[8] = system: MALME-3M melanoma
[9] = system: MDA-N
[10] = system: SF-295 CNS
[11] = system: HOP-62 NSCLC
[12] = system: NCI/ADR-RES ovarian

Row | Structure (SMILES) | TGI [1] [µM] | TGI [2] [µM] | TGI [3] [µM] | TGI [4] [µM] | TGI [5] [µM] | TGI [6] [µM] | TGI [7] [µM] | TGI [8] [µM] | TGI [9] [µM] | TGI [10] [µM] | TGI [11] [µM] | TGI [12] [µM]
1 | COC(=O)[C@H]1[C@H](C(=O)OC)[C@@H](C)c2c(ccc3c2[nH]c2ccccc23)[C@@H]1C | > 100 | > 100 | > 100 | > 100 | 66.3 | 61.5 | > 100 | > 100 | > 100 | > 100 | > 100 | > 100
2 | C[n+]1c2ccccc2c(CNC(CCC(N)=O)C(=O)O)c2ccccc21 (stereo unspecified) | 13.1 | 9.95 | 12.9 | 19.7 | 12.9 | 3.22 | 13.4 | 10.6 | 10.5 | 16 | 12.3 | 14
3 | COc1ccc(-c2cc(-c3ccc(Nc4ccnc5cc(C(F)(F)F)ccc45)cc3)[nH]c(=O)c2C#N)c2ccccc12 | > 100 | > 56.1 | > 100 | > 100 | > 100 | > 100 | > 100 | > 63.2 | > 52.9 | > 100 | 47.2 | > 100
4 | O=C(O)c1c(CC(Cc2ccc3c(c2)CCCC3)C(=O)O)ccc2c1CCCC2 (stereo unspecified) | > 100 | > 100 | > 100 | > 100 | > 100 | > 100 | > 100 | > 100 | > 100 | > 100 | > 100 | > 100
5 | Cc1ccc(S(=O)(=O)N2CCSCCSCCN(S(=O)(=O)c3ccc(C)cc3)CCN(S(=O)(=O)c3ccc(C)cc3)CC2)cc1 | > 100 | > 100 | > 100 | > 100 | > 100 | > 100 | > 100 | > 100 | > 100 | > 100 | > 100 | > 100
6 | CC1=C/C(=N/N2C(=O)/C(=C/c3ccc(Cl)cc3)N=C2c2ccccc2)CC(C)(C)C1 | > 100 | > 100 | > 100 | > 100 | > 100 | > 100 | > 100 | > 100 | > 100 | > 100 | > 100 | > 100
7 | C=CCN1C(=O)/C(=C/c2ccc(C)cc2)N=C1SC/C=C/C | > 100 | > 100 | > 100 | > 100 | > 100 | > 100 | > 100 | 93.4 | > 100 | > 100 | > 100 | > 100
8 | COC(=O)C1=NN2c3ccccc3C(=O)OCCC2C1 (stereo unspecified) | > 100 | > 100 | > 100 | > 100 | > 100 | > 100 | > 100 | > 100 | > 100 | > 100 | > 100 | > 100
9 | Clc1ccc(OCc2nnc3sc(-c4ccc(-c5ccc(Cl)cc5Cl)o4)nn23)c(Cl)c1 | 54 | > 100 | 34.5 | 48.3 | 38.2 | 26.1 | 35.2 | 39.4 | 71.3 | 33.6 | 31.3 | 45.1
10 | N#Cc1c(=O)c2cc([N+](=O)[O-])ccc2n2c1[nH]c1ccccc12 | > 38.4 | > 79.9 | > 100 | > 100 | > 72 | > 100 | > 83.7 | 35.4 | > 77.4 | > 52.2 | 97.7 | > 56.4
11 | O=C1Oc2ccccc2C(=O)/C1=C/N1C(=O)/C(=C/c2ccc([N+](=O)[O-])cc2)SC1=S | 55 | 50.6 | > 100 | 89.5 | 90.7 | > 100 | > 100 | > 100 | 46.7 | 68 | 40.8 | 95.7
12 | CCOC(=O)CCC(C(=O)OCC)n1nc2ccc(Nc3c(C)[n+]([O-])c4cc(Cl)ccc4[n+]3[O-])cc2n1 (stereo unspecified) | > 100 | > 100 | > 100 | > 100 | > 100 | > 100 | > 100 | > 100 | > 100 | > 100 | > 100 | > 100
13 | COC(=O)NCCc1[nH]nc2c1C(=O)C=C(OC)C2=O | 44.4 | 27.7 | 44.5 | > 100 | 28.3 | 36.2 | 34.9 | 28.8 | 33.3 | 32.2 | 36 | > 100
14 | Oc1[nH]c2ccccc2c1N=NC1=NCCCCN1 | > 100 | > 100 | > 100 | > 100 | > 100 | > 100 | > 100 | > 100 | > 100 | > 100 | > 100 | > 100
15 | COC(=O)c1ccc2n1C1CC3CC(CC2C3)C1 | > 100 | > 100 | > 100 | > 100 | > 100 | > 100 | > 100 | > 100 | > 100 | > 100 | > 100 | > 100
16 | Oc1cc(Cl)cc2cc(Br)cnc12 | > 100 | > 100 | > 64.2 | > 100 | > 23.9 | > 100 | > 94.1 | 21 | > 100 | > 45.4 | > 55.1 | > 54.5
17 | CC(C)(C)c1cc(-c2ccc(-c3cc(C(C)(C)C)c(O)c(C(C)(C)C)c3)cc2)cc(C(C)(C)C)c1O | > 100 | > 100 | > 100 | > 100 | > 100 | > 100 | > 100 | > 100 | > 100 | > 100 | > 100 | > 100
18 | O=C1CC(Br)c2c(Cl)sc(Cl)c21 (stereo unspecified) | 39.1 | 7.38 | 48.2 | 30.4 | 15 | 8.91 | 24.7 | 25.6 | 12.2 | 30.2 | 19.1 | 90.1
19 | O=[N+]([O-])CC(SCc1ccccc1)c1ccc2c(c1)OCO2 (stereo unspecified) | 17.5 | 7.93 | 39.5 | 28.6 | 16 | 3.42 | 12.7 | 30.1 | 9.63 | 23.1 | 33 | 28.8
20 | NC1CC2C3CCC2C1C3=O (stereo unspecified) | > 100 | > 100 | > 100 | > 100 | > 100 | > 100 | > 100 | > 100 | > 100 | > 100 | > 100 | > 100
21 | O=c1nc2n(cc1/C=C\Br)C1CC(O)C(CO2)O1 (stereo unspecified) | > 100 | > 100 | > 100 | > 100 | > 100 | > 100 | > 100 | > 100 | > 100 | > 100 | > 100 | > 100
22 | Cc1cccc2sc(NC(=O)c3cc([N+](=O)[O-])ccc3Cl)nc12 | 19.9 | 12.6 | > 100 | > 100 | > 100 | 4.67 | 10.7 | 30.3 | 3.69 | > 100 | > 73.1 | > 24.2
23 | Cc1cc(C)c2c(n1)S(=O)(=O)N(CCCN1CCN(c3cccc(C(F)(F)F)c3)CC1)/C(=C(\O)c1ccccc1)C2=O | 21.7 | 82.8 | 37.6 | 84.7 | 32.4 | 16.5 | 20.5 | > 100 | > 100 | 19.7 | > 100 | 22.4
